US5821231A, “CS-1 peptidomimetics, compositions and methods of using same” (Cytel Corporation, priority 1995, dated 1998)
Square brackets hold non-standard residues; d marks the D form. Peptide text beside a SMILES is read from it. * marks the point of attachment. PhAc = O=C(Cc1ccccc1)*

Experiments:
[1] = Retention of potency in PBS containing 10 percent mouse or human serum; assay type: in vitro ADME; details: 24 hours in PBS at 7.2-7.4 containing 10 percent mouse or human serum
[2] = system: asthmatic sheep; assay: Treatment of asthmatic sheep (Ascaris suum antigen, crossover); assay type: in vivo; details: nebulized 1 mg/kg; FIG. 7
Method: Six asthmatic sheep were treated in a double blind cross-over study. […] This study was carried out generally as described in Abraham et al., J. Clin. Invest., 93:776-787 (1994).
The inhibitor compound used here was Compound ID No. 896.52, N-phenylacetyl-Leu-Asp-Phe-D-Pro-NH2, with a control compound that comprised the previously described compound having the same residues in a scrambled sequence. The vehicle for the nebulized compounds was phosphate-buffered saline. The compounds were administered at a dose of 1 mg/kg each, twice a day for three days prior to challenge, as well as 0.5 hours prior to and four hours post challenge on day 4. Because this was a crossover study, each animal received one or the other treatment, followed by a rest and then the other treatment. Each animal therefore served as its own control.
Post challenge airway responsiveness was also assayed. Here, specific lung resistance, SRL, returned to baseline values 24 hours after challenge, however, the sheep were hyperresponsive to inhaled carbachol at that time.

[3] = system: BALB/c mice; assay: Adoptive transfer delayed type hypersensitivity in mice (oxazolone); assay type: in vivo, mouse
Method: An adoptive transfer delayed-type hypersensitivity murine model has been developed using splenic T cells primed to oxazolone. This model is described in Elices et al., Clin. Exp. Rheum., 11(Suppl. 8):577-580 (1993), whose procedures were followed here.
Thus, BALB/c mice were shaved on the belly and painted (50 μl on the belly and 5 μl on each paw) with three percent oxazolone in acetone/olive oil (4:1) at days zero and 1. At day 5, the mice were sacrificed, their spleens removed, and splenic T cells were obtained via nylon wool columns.
Normal saline or saline containing 25×10^6 /animal of the oxazolone-immune T cells were separately injected into naive mice. The mice were then challenged by painting 10 μl of 2 percent oxazolone onto one ear each. All procedures were carried out under sterile conditions and in endotoxin-free buffers.
Prior to challenge or saline injection, the mice were implanted with pumps that subcutaneously administered normal saline, normal saline containing the compound, Compound ID No. 896.52, N-phenylacetyl-Leu-Asp-Phe-D-Pro-NH2, or normal saline containing a compound with a scrambled sequence continually at 6 mg/kg/day for a 24-hour time period. The swelling diameter at the site of challenge or saline injection was measured with a microcaliper 24 hours thereafter.
An expanded study was carried out as described above except that a scrambled compound control was not used as a control for further inhibitor compounds of Table 1 with larger groups of mice. Statistical analyses were carried out versus injection of vehicle alone.

[4] = system: SJL/J mice; assay: Experimental autoimmune encephalomyelitis in mice; assay type: in vivo; details: 1 mg/mouse i.p. at days 8 and 9; FIG. 6; versus control compound
Method: EAE was induced in female SJL/J mice (8 to 14 weeks old) by immunization on day zero with 50 μg of a compound corresponding to positions 139-151 of PLP emulsified in a 1:1 mixture of PBS and complete Freund's adjuvant (CFA). Each mouse was injected with 0.2 ml of the adjuvant emulsion subcutaneously (s.c.) at two sites in the hind flank. All mice received 10^7 killed Bordetella pertussis units in 100 μl were injected intravenously 24 to 72 hours later.
Mice were observed daily, beginning at day 8 for clinical signs of EAE, and disease was scored on a scale of 0-5 as: 0=no disease; 1=floppy tail; 2=moderate hind limb weakness; 3=paraparesis; 4=paraplegis with moderate forelimb weakness; 5=qualdriplegis or premoribund state.
The inhibitor compound, Compound ID No. 896.52, N-phenylacetyl-Leu-Asp-Phe-D-Pro-NH2 was administered intraperitoneally at 1 mg/mouse in 0.2 ml of incomplete Freund's adjuvant at days 8 and 9. A compound having a scrambled sequence [N-phenylacetyl-Asp-Leu-Phe-D-Pro-NH2 ] was similarly administered to serve as a control.
Summed or averaged scores for clinical signs were plotted vs. time. The area under the resulting curves was calculated between day 8 and day 35 to calculate percentage inhibition of EAE by an inhibitor compound. The percent inhibition was calculated as follows:
[…]

[5] = system: New Zealand white rabbits; assay: Rabbit heterotopic cardiac allograft model; assay type: in vivo
Excerpt: New Zealand white female rabbits (Charles River Lab., Saint Laurent, Quebec), between 3.5 and 4 kg underwent heterotopic cardiac transplant following an experimental protocol previously described [Alonso et al., Am. J. Pathol., 87:415-442 (1977); Clausell et al., Circulation, 89:2768-2779 (1994)]. The animals were unselected to favor an HLA-mismatch, the host rabbits were Pasteurella-free and the donors, outbred animals. Both host and donor rabbits were fed Purina 5321-0.5 percent cholesterol diet (Research Diets Inc., New Brunswick, N.J.), a strategy that has proven useful in accelerating the process of allograft arteriopathy [Alonso et al., Am, J. Pathol., 87:415-442 (1977)]. The diet was commenced four days prior to the transplant and continued in the recipient of the transplant until the completion of the experimental period.
The technique of heterotopic cardiac transplantation has been previously described [Clausell et al., Circulation, 89:2768-2779 (1994)]. Briefly, a vertical incision was performed in the anterior aspect of the neck of the recipient rabbit and the left common carotid artery and the ipsilateral external jugular vein were isolated. The cardiac allograft was placed in the neck by anastomosing the aorta end-to-side to the recipient's carotid artery and the pulmonary end-to-side to the recipient's external jugular vein, following a total period of ischemia for the donor hearts of approximately 30 minutes. Postoperative care was in compliance with the Principles of Laboratory Animal Care formulated by the Canadian National Society for Medical Research.
Beginning the day of the transplant, the animals were randomized and treated with either scrambled compound (control group) at 1 mg/kg s.c. or the inhibitor compound at 1 mg/kg s.c. The doses of the compounds were empirically extrapolated to the in vivo model based on preliminary in vitro studies, of Table 1. No other immunosuppression therapy was administered. The grafts were monitored daily by palpation and maintained for 7 to 8 days, a previously described endpoint that was associated with myocardial rejection (impaired cardiac contractility) and development of the allograft arteriopathy in this model [Clausell et al., Circulation, 89:2768-2779 (1994)]. A total of fourteen animals were studied in the control (n=7) and treated (n=7) groups.
The animals were sacrificed using a lethal dose of euthanol (480 mg i.v.) (MTC Pharmaceutical, Cambridge, ON), host and donor hearts were removed, and the coronary arteries were perfused with saline through the aorta, followed by light fixation by perfusion with 2 percent paraformaldehyde (Sigma, St, Louis, Mo.). […] Different sections of the hearts were either saved in 10 percent formalin (BDH Inc., Toronto, ON) for light microscopy studies or immediately frozen in O.T.C. Compound Tissue Tek (Miles Inc., Elkart, Ind.) for specific immunohistochemistry studies.
Three different paraffin-embedded tissue sections from host and donor hearts from both control and treated rabbits were stained by the Movat pentachrome method for light microscopy. Morphometric analysis was performed using a Zeiss microscope attached to a computer-generated video analysis system (Perceptics Inc., NuVision software), as described in Clausell et al., Circulation, 89:2768-2779 (1994). The number of vessels with intimal lesions were counted in all three heart sections from each animal studied and are expressed as a percentage of the total vessel number.
In the host hearts, 999 vessels in the control group and 1054 vessels in the treated group were analyzed. In the donor hearts, 827 vessels in the control group and 617 vessels in the treated group were analyzed. To determine the severity of intimal thickening, the diameter of each traceable vessel in all three sections was measured and the coronary arteries were categorized as small (diameter <100 μm), medium (diameter >100<500 μm) and large (diameter >500 μm). […]

[6] = system: Porcine peripheral blood lymphocytes; assay: In vitro porcine allograft model: transendothelial lymphocyte migration; assay type: cell-based; details: 10 μg/ml in the medium; IL-1β-stimulated SMC
Method: A similar study was carried out in vitro using porcine coronary artery endothelial cells (EC; as are present in the IEL) and smooth muscle cells (SMC; as are present in the medial layer of the artery). The two cell types were cultured using a membrane transwell system, with the SMC on the bottom layer in M-199 medium (Gibco Labs.). The SMC were stimulated with 100 ng/ml of interleukin-1β (IL-1β) for 24 hours prior to the start of the assay. Porcine peripheral blood lymphocytes were separated by Ficoll-Hypaque, radiolabeled and incubated overnight (about 18 hours) on the EC.

Compound: CC(C)C[C@H](NC(=O)Cc1ccccc1)C(=O)N[C@@H](CC(=O)O)C(=O)N[C@@H](Cc1ccccc1)C(=O)N1CCC[C@@H]1C(N)=O [896.52, N-phenylacetyl-Leu-Asp-Phe-D-Pro-NH2] (PhAc-LDF[dP]-NH2)
- loss of potency in serum [1]: no loss of potency
- change from baseline specific lung resistance (SRL) on challenge [2]: less of a change from baseline specific lung resistance
- Percent Inhibition (post-challenge swelling) ([3]; expanded study, versus vehicle alone): 36%
- reduction of inflammation (swelling diameter at challenge site) ([3]; initial study, 6 mg/kg/day s.c. pump, 24-hour, FIG. 5): reduced this type of CS-1/VLA-4-mediated immunoinflammation
- clinical signs of EAE [4]: marked improvement in clinical signs
- Vessel Intimal Thickening: Percent of Vessels ([5]; donor heart, 1 mg/kg s.c.): 35%
- Vessel Intimal Thickening: Severity (Percent of Vessel area) ([5]; donor heart, 1 mg/kg s.c.): 16%
- Baseline of incidence of intimal thickening ([5]; rabbit own host heart): 12%
- Baseline of severity of intimal thickening ([5]; rabbit own host heart): 12%
- reduction of transendothelial lymphocyte migration [6]: about 30%
